{"source": "patent US10869940B2", "about": "“Targeted photoacoustic compounds, formulations, and uses thereof” (The Board of Trustees of the Leland Stanford Junior …, priority 2015, dated 2020)", "target": "T1, PSMA expressing PC3 PiP cells (Homo sapiens, UniProt Q04609)", "T1 construct": "expressed in transfected cells; host or cells: PC3 PIP cells", "T1 sequence (Q04609 whole entry)": "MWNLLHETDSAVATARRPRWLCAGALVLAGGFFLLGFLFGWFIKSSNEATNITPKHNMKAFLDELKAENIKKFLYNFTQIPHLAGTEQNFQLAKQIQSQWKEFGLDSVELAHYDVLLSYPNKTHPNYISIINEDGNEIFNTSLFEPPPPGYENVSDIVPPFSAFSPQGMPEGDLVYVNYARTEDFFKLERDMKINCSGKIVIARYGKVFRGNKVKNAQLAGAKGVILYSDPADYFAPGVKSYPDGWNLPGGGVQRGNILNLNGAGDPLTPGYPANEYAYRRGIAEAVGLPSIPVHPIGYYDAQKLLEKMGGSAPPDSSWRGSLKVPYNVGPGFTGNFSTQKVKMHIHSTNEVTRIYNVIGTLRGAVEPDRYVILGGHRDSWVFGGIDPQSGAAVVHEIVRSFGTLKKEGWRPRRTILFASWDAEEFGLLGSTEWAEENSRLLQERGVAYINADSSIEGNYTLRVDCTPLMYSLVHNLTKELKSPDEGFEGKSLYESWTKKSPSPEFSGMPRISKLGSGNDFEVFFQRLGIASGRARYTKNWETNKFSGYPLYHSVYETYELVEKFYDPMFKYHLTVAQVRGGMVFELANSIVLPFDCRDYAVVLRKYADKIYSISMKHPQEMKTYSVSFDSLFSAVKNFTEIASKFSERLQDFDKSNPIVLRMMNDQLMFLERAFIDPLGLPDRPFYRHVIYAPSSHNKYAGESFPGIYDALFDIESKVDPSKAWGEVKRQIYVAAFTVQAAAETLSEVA", "experiment": "Binding of the PSMA targeting photoacoustic compound to PSMA-expressing PC3 PIP cells", "data": [{"molecule": "O=C(O)CCC(CP(=O)(O)O)C(=O)O", "note": "(stereo not shown) [2-PMPA, 2-(phosphonomethyl)pentane-1,5 dioic acid]", "values": [{"measurement": "blocking of binding to PC3 PIP cells by co-incubation with 2-PMPA", "value": "efficiently blocked"}]}]}
